According to ChEMBL document CHEMBL5131449, “Synthetic Biology-Based Discovery of Diterpenoid Pyrones from the Genome of Eupenicillium shearii” (J Nat Prod, 2022):
Activity calls are given as the source filed them. No cut-off for these calls is given here.

Molecular target: Amyloid-beta precursor protein (Homo sapiens) (UniProt P05067)
Experiment: Inhibition of HFIP-pretreated amyloid beta (1 to 42) (unknown origin) aggregation assessed as suppression of amyloid beta aggregation at 50 uM incubated for 24 hrs by Thioflavin T based fluorescence assay
Assay type: cell-based

Sequence of Amyloid-beta precursor protein (Homo sapiens) (P05067 whole entry): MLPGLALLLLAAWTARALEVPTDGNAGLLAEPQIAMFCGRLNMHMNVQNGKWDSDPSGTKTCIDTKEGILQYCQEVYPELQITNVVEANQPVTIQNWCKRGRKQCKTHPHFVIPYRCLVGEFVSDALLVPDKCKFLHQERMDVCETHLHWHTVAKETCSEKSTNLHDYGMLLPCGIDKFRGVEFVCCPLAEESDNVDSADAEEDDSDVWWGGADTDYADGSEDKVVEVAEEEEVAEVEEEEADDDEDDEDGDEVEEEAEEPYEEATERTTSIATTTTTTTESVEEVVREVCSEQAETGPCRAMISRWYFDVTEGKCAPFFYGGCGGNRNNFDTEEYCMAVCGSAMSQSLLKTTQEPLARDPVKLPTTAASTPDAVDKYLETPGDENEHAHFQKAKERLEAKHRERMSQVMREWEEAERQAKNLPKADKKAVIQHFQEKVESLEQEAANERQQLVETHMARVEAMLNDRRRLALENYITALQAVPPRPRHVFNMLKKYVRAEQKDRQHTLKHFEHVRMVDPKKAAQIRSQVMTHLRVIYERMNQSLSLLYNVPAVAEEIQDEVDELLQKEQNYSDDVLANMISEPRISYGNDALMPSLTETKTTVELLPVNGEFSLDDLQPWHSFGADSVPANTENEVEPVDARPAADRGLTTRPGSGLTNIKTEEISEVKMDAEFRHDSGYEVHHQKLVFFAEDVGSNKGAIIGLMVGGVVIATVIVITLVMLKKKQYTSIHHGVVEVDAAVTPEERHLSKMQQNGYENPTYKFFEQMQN

Row | inhibition | SMILES
1 | Active | Cc1oc(=O)c2c(c1C)O[C@@]1(C)[C@H](O)[C@H](O)[C@H]3[C@@](C)(CC[C@H]4C(C)(C)[C@@]5(O)CC[C@@]43CO5)[C@@H]1C2
2 | Active | Cc1oc(=O)c2c(c1C)O[C@@]1(C)[C@H](O)[C@H](O)[C@H]3[C@@](C)(CC[C@H]4C(C)(C)[C@@H](O)CC[C@@]43CO)[C@@H]1C2
3 | Active | Cc1oc(=O)c2c(c1C)O[C@@]1(C)[C@H](O)[C@H](O)[C@@H]3[C@@]4(C)CCC(=O)C(C)(C)[C@@H]4CC[C@@]3(C)[C@@H]1C2
